# Data as given in US20010004460A1, “PROCESS FOR THE PREPARATION OF RICE SEED FOR SOWING” (priority 1995, published 2001).
# Legend:
# rice seeds [1] = conditions: in vivo
# Method: Seed was tested for germination in an incubator and also flown onto a flooded field under standard agricultural practices.
# rice seeds [2] = experiment: Seedling growth of pregerminated rice seed coated with gibberellic acid, sown by plane in flooded field
# rice seeds [3] = experiment: Stand establishment of pregerminated rice seed treated with mancozeb slurry, flown onto flooded fields; assay type: in vivo; conditions: slurry at 19-22 fluid ounces per hundred pounds of seed
compound,measurement,setting,value
"N#Cc1nn(-c2c(Cl)cc(C(F)(F)F)cc2Cl)c(N)c1[S+]([O-])C(F)(F)F (stereo not drawn) [fipronil, 5-amino-1-(2,6-dichloro-4-trifluoromethylphenyl)-4-trifluoromethylsulfinyl-3-cyanopyrazole]",appearance of pregerminated seeds after machine mixing,rice seeds [1],appeared undamaged
same,stand establishment,rice seeds [1],the same as untreated seed
C=C1C[C@]23C[C@@]1(O)CC[C@H]2[C@@]12C=C[C@H](O)[C@@](C)(C(=O)O1)[C@H]2[C@@H]3C(=O)O [gibberellic acid],size of root relative to shoot,rice seeds [2]; 3 to 10 days after sowing,approximately the same size
same,resistance of seedlings to wind,"rice seeds [2]; 3 to 10 days after sowing, located in the soil at a depth of 0 to 2 mm",highly resistant to wind
same,appearance of germinated seeds after machine mixing,"rice seeds [2]; […], radicles 1 to 8 mm",appeared undamaged
"[[1,2-ethanediylbis[carbamodithioato]](2-)]manganese mixture with [[1,2-ethanediylbis [carbamodithioato]](2—)]zinc [mancozeb]",stand of rice plants established,rice seeds [3],acceptable stand
